Measured values published in patent publication US7642251B2, “Compounds for the treatment of hepatitis C” (Bristol-Myers Squibb Company, priority 2007, dated 2010).

Assays:
[1] = target: T1, HCV NS5B (Hepatitis C virus genotype 1b, UniProt Q9WMX2); assay: Modified HCV NS5B RdRp enzyme assay (preincubation protocol); assay type: biochemical; conditions: preincubation protocol; read-out: IC50
T1 construct: The cDNA encoding the NS5B protein of HCV, genotype 1b; made in house; host or cells: E. coli BL21(DE3)
Experimental: HCV NS5B RdRp cloning, expression, and purification. The cDNA encoding the NS5B protein of HCV, genotype 1b, was cloned into the pET21a expression vector. The protein was expressed with an 18 amino acid C-terminal truncation to enhance the solubility. The E. coli competent cell line BL21(DE3) was used for expression of the protein. Cultures were grown at 37° C. for ˜4 hours until the cultures reached an optical density of 2.0 at 600 nm. The cultures were cooled to 20° C. and induced with 1 mM IPTG. Fresh ampicillin was added to a final concentration of 50 μg/ml and the cells were grown overnight at 20° C.
Cell pellets (3 L) were lysed for purification to yield 15-24 mgs of purified NS5B. The lysis buffer consisted of 20 mM Tris-HCl, pH 7.4, 500 mM NaCl, 0.5% triton X-100, 1 mM DTT, 1 mM EDTA, 20% glycerol, 0.5 mg/ml lysozyme, 10 mM MgCl2, 15 ug/ml deoxyribonuclease I, and Complete™ protease inhibitor tablets (Roche). After addition of the lysis buffer, frozen cell pellets were resuspended using a tissue homogenizer. To reduce the viscosity of the sample, aliquots of the lysate were sonicated on ice using a microtip attached to a Branson sonicator. The sonicated lysate was centrifuged at 100,000×g for 1 hr at 4° C. and filtered through a 0.2 μm filter unit (Corning).
The protein was purified using three sequential chromatography steps: Heparin sepharose CL-6B, polyU sepharose 4B, and Hitrap SP sepharose (Pharmacia). The chromatography buffers were identical to the lysis buffer but contained no lysozyme, deoxyribonuclease I, MgCl2 or protease inhibitor and the NaCl concentration of the buffer was adjusted according to the requirements for charging the protein onto the column. Each column was eluted with a NaCl gradient which varied in length from 5-50 column volumes depending on the column type. After the final chromatography step, the resulting purity of the enzyme is >90% based on SDS-PAGE analysis. The enzyme was aliquoted and stored at −80° C.
Standard HCV NS5B RdRp enzyme assay. HCV RdRp genotype 1b assays were run in a final volume of 60 μl in 96 well plates (Costar 3912). The assay buffer is composed of 20 mM Hepes, pH 7.5, 2.5 mM KCl, 2.5 mM MgCl2, 1 mM DTT, 1.6 U RNAse inhibitor (Promega N2515), 0.1 mg/ml BSA (Promega R3961), and 2% glycerol. All compounds were serially diluted (3-fold) in DMSO and diluted further in water such that the final concentration of DMSO in the assay was 2%. HCV RdRp genotype 1b enzyme was used at a final concentration of 28 nM. A polyA template was used at 6 nM, and a biotinylated oligo-dT12 primer was used at 180 nM final concentration. Template was obtained commercially (Amersham 27-4110). Biotinylated primer was prepared by Sigma Genosys. 3H-UTP was used at 0.6 μCi (0.29 μM total UTP). Reactions were initiated by the addition of enzyme, incubated at 30° C. for 60 min, and stopped by adding 25 μl of 50 mM EDTA containing SPA beads (4 μg/μl, Amersham RPNQ 0007). Plates were read on a Packard Top Count NXT after >1 hr incubation at room temperature.
Modified HCV NS5B RdRp enzyme assay. A modified enzyme assay was performed essentially as described for the standard enzyme assay except for the following: The biotinylated oligo dT12 primer was precaptured on streptavidin-coated SPA beads by mixing primer and beads in assay buffer and incubating at room temperature for one hour. Unbound primer was removed after centrifugation. The primer-bound beads were resuspended in 20 mM Hepes buffer, pH 7.5 and used in the assay at final concentrations of 20 nM primer and 0.67 μg/μl beads. Order of addition in the assay: enzyme (14 nM) was added to diluted compound followed by the addition of a mixture of template (0.2 nM), 3H-UTP (0.6 μCi, 0.29 μM), and primer-bound beads, to initiate the reaction; concentrations given are final. Reactions were allowed to proceed for 4 hours at 30° C.
IC50 values for compounds were determined using seven different [I]. […]

[2] = system: HCV replicon cells; assay: HCV replicon FRET assay; assay type: cell-based; conditions: Hepatitis C virus; FRET assay; read-out: EC50
Description: FRET Assay Preparation. To perform the HCV FRET screening assay, 96-well cell culture plates were used. The FRET peptide (Anaspec, Inc.) (Taliani et al., Anal. Biochem. 1996, 240, 60-67) contains a fluorescence donor, EDANS, near one end of the peptide and an acceptor, DABCYL, near the other end. The fluorescence of the peptide is quenched by […] resonance energy transfer (RET) between the donor and the acceptor, but as the NS3 protease cleaves the peptide the products are released from RET quenching and the fluorescence of the donor becomes apparent. The assay reagent was made as follows: 5× cell Luciferase cell culture lysis reagent from Promega (#E153A) diluted to 1× with dH2O, NaCl added to 150 mM final, the FRET peptide diluted to 20 μM final from a 2 mM stock.
To prepare plates, HCV replicon cells, with or without a Renilla luciferase reporter gene, were trypsinized and placed into each well of a 96-well plate with titrated test compounds added in columns 3 through 12; columns 1 and 2 contained a control compound (HCV protease inhibitor), and the bottom row contained cells without compound. The plates were then placed in a CO2 incubator at 37° C.
Assays. Subsequent to addition of the test compounds described above (FRET Assay Preparation), at various times the plate was removed and Alamar blue solution (Trek Diagnostics, #00-100) was added per well as a measure of cellular toxicity. After reading in a Cytoflour 4000 instrument (PE Biosystems), plates were rinsed with PBS and then used for FRET assay by the addition of 30 ul of the FRET peptide assay reagent described above (FRET Assay Preparation) per well. The plate was then placed into the Cytoflour 4000 instrument which had been set to 340 excite/490 emission, automatic mode for 20 cycles and the plate read in a kinetic mode. Typically, the signal to noise using an endpoint analysis after the reads was at least three-fold. Alternatively, after Alamar blue reading, plates were rinsed with PBS, 50 ul of DMEM (high glucose) without phenol red was added and plates were then used for luciferase assay using the Promega Dual-Glo Luciferase Assay System.
Compound analysis was determined by quantification of the relative HCV replicon inhibition and the relative cytotoxicity values. To calculate cytoxicity values, the average Alamar Blue fluorescence signals from the control wells were set as 100% non-toxic. The individual signals in each of the compound test wells were then divided by the average control signal and multiplied by 100% to determine […]. To calculate the HCV replicon inhibition values, an average background value was obtained from the two wells containing the highest amount of HCV protease inhibitor at the end of the assay period. These numbers were similar to those obtained from naïve Huh-7 cells.
The background numbers were then subtracted from the average signal obtained from the control wells and this number was used as 100% activity. The individual signals in each of the compound test wells were then divided by the averaged control values after background subtraction and multiplied by 100% to determine percent activity. EC50 values for a protease inhibitor titration were calculated as the concentration which caused a 50% reduction in FRET or luciferase activity. The two numbers generated for the compound plate, percent cytoxicity and percent activity were used to determine compounds of interest for further analysis.

T1 sequence (Q9WMX2 2420-2992): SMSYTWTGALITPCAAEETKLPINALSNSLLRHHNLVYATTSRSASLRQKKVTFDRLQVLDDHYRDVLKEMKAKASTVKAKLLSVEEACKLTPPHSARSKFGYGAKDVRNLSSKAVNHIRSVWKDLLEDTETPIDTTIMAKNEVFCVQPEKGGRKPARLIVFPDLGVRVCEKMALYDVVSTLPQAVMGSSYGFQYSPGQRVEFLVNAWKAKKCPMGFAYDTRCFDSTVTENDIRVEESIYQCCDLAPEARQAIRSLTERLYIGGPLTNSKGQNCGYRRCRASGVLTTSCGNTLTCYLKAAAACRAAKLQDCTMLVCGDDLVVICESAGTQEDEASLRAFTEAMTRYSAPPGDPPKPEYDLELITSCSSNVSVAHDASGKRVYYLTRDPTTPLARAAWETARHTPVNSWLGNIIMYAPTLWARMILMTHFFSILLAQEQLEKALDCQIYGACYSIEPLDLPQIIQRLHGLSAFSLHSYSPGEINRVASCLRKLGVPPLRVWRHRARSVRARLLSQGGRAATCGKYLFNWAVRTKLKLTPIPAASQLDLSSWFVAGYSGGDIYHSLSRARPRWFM

| Structure (SMILES) | IC50 [1] | EC50 [2] |
| --- | --- | --- |
| COc1ccc2c(c1)C=C(c1cnc(OC)c3[nH]ccc13)Cn1c-2c(C2CCCCC2)c2ccc(C(=O)O)cc21 | 4.58 to 500 nM | 4.58 to 500 nM |
| COc1ccc2c(c1)C=C(c1cccc(OCCN(C)C)c1)Cn1c-2c(C2CCCCC2)c2ccc(C(=O)NS(=O)(=O)C(C)C)cc21 | 4.58 to 500 nM | > 500 nM |
| COc1ccc2c(c1)C=C(c1cccc(N3CCOCC3)n1)Cn1c-2c(C2CCCCC2)c2ccc(C(=O)O)cc21 | > 500 nM | > 500 nM |
| COc1ccc2c(c1)C=C(c1ccccc1OC(F)F)Cn1c-2c(C2CCCCC2)c2ccc(C(=O)NS(=O)(=O)C(C)C)cc21 | 4.58 to 500 nM | > 500 nM |
